The target of assay [1] is T1, THERMINATOR™ DNA polymerase (Thermococcus sp., UniProt Q56366, A485L/D141A/E143A).
T1 construct: purchased New England Biolabs
The assay can be described thus: biochemical. To be noted: IC50 for incorporation, concentration at which the compound incorporates on half the primer-template complexes; complement template base. Details: species or system Thermococcus species 9° N-7. Here is the method: Natural and modified nucleotides were tested for incorporation efficiency using the “polymerase end point assay” (Wu et al., 2007, which is incorporated herein by reference). This assay examines incorporation efficiency on matched and mismatched template bases. Incorporation efficiency is measured by determining the concentration at which the compound incorporates on half the primer-template complexes (IC50). Titrations of increasing compound concentration were performed to generate curves from which the IC50 can be determined.
The sequence of the template DNA is selected depending on which compound will be tested. For example, the first interrogation base after the primer in the template sequence is the complement base of the compound when measuring incorporation efficiency, and one of three mismatched bases when measuring mismatch discrimination properties.
(§1) To the annealed reaction, a DNA polymerase (e.g., THERMINATOR™ DNA polymerase, 0.25 units per reaction, New England Biolabs), 1× Thermopol Buffer, and a known concentration of either natural or modified nucleotide are added to each 10 μL reaction and incubated at 75° C. for 10 minutes, cooled on ice, and quenched with 10 μL of stop solution (98% formamide: 10 mM Na2EDTA, pH=8.0, 25 mg/ml Blue Dextran). Stopped reactions are heated to 75° C. for 30 seconds to denature the DNA, and then placed on ice. The extension products are analyzed on a 10% Long Ranger (Lonza) polyacrylamide gel using an ABI model 377 DNA sequencer. Additional details are provided in Example 1, below.
Polymerase Assays. Natural and modified nucleotides were tested for incorporation efficiency using the “polymerase end point assay” (Wu et al., 2007, which is incorporated herein by reference). This assay examines incorporation efficiency on matched and mismatched template bases. Incorporation efficiency is measured by determining the concentration at which the compound incorporates on half the primer-template complexes (IC50). Titrations of increasing compound concentration were performed to generate curves from which the IC50 can be determined.
The assay is performed by first annealing 5 nM of BODIPY-FL labeled primer with 40 nM template DNA in 1× Thermopol Buffer (20 mM Tris-HCl, pH 8.8; 10 mM (NH4)2SO4; 10 mM KCl; 2 mM MgSO4; 0.1% Triton X-100, New England BioLabs).
The temperature cycle to complete primer annealing is 80° C. for 30 seconds, 57° C. for 30 seconds, then cooling to 4° C. The sequence of the template DNA is selected depending on which compound will be tested. For example, the first interrogation base after the primer in the template sequence is the complement base of the compound when measuring incorporation efficiency, and one of three mismatched bases when measuring mismatch discrimination properties.
as §1, with “sequencer.” for “sequencer. Additional details are provided in Example 1, below.”

Assay [2] in a line: UV-cleavage of incorporated nucleotide analogs with 365 nm light. To be noted: 365 nm UV light, 50 mM NaN3; time at which half the incorporated analog is cleaved. The protocol:
Cleavage of the terminating substituted 2-nitrobenzyl group when analogs are incorporated into the primer strand with 365 nm UV light allows for the next cycle of incorporation to resume. Without being bound by theory, at least two factors were found typically influence UV-cleavage rates of incorporated nucleotide analogs: a) stereo-chemistry of the α-carbon substitution of the 2-nitrobenzyl group, and b) substitution on the benzyl ring. Incorporation on a matched template is performed as described above using 1 μM concentration to extend the primer strand. Ten identical tubes are used for each incorporation experiment, after which NaN3 is added to a final concentration of 50 mM. Extended primer reactions are exposed to 365 nm light for various time points using the UV deprotector device described by Wu et al. (2007, which is incorporated herein by reference) and analyzed using an AB model 377 DNA sequencer. The quantitative data are plotted linearly as product formation versus exposure time, and the time point at which half the nucleotide analog is cleaved is calculated, as a DT50 value. […] For example, based on these examples, the ds2 analogs show faster cleavage rates (e.g., lower DT50 values) compared with ds1 analogs. Furthermore, substitution of a methoxy group at the 4 position on the benzyl ring further increases the rate of UV-cleavage, albeit for ds2 analogs only (e.g., the DT50 value for 5p098-ds2 is […] versus that of 1.9 sec for 6p087-ds2). Based on the examples summarized in Table 3, substitution at the α-carbon of the 2-nitrobenzyl ring increases UV-cleavage in a stereospecific manner.

A short description of assay [3]: chemical cleavage by palladium-catalysed hydrogenolysis. The conditions noted are these: hydrogen, ethanol, room temperature; for time to complete cleavage to thymidine: heterogenous catalyst, palladium on activated carbon (10 wt. %), TLC/HPLC. The protocol:
Chemical Cleavage Using Heterogenous Palladium Catalyst: To a solution of 5-(benzyloxy)methyl-2′-deoxyuridine (29 mg, 0.082 mmol) in absolute ethanol (2 mL) under a nitrogen atmosphere was added 10 mg of palladium on activated carbon (10 wt. %, 10 mg) (CAUTION: flammable solid! Ensure handling in oxygen-free atmosphere). The mixture was flushed with hydrogen gas and stirred at room temperature for 30 minutes while being monitored by TLC every five minutes. The mixture was filtered, concentrated under reduced pressure, and dried under vacuum to yield thymidine (18 mg, 88%) that was identified by comparison to the authentic sample (TLC and ^1H NMR).
Chemical Cleavage Using Homogenous Palladium Catalyst: To a solution of 5-(benzyloxy)methyl-2′-deoxyuridine (3.48 mg, 0.01 mmol) in absolute ethanol (0.1 mL) under a nitrogen atmosphere a solution of sodium tetrachloropalladate (II) (0.6 mg, 0.002 mmol) in absolute ethanol (0.9 mL) was added. The mixture was flushed with hydrogen gas and stirred at room temperature while being monitored by TLC every five minutes. After 20 minutes TLC indicated complete disappearance of starting material. The sole cleavage product was identified to be thymidine by comparison to the authentic sample on TLC.
(§2) Chemical Cleavage Using Heterogenous Palladium Catalyst: To a solution of 5-(2-isopropylbenzyloxy)methyl-2′-deoxyuridine in absolute ethanol (10 mM, 1 mL) under a nitrogen atmosphere was added of palladium on activated carbon (10 wt. %, 2 mg) (CAUTION: flammable solid! Ensure handling in oxygen-free atmosphere). The mixture was flushed with hydrogen gas and stirred at room temperature for five minutes while being monitored by TLC every one minute. After five minutes TLC indicated complete disappearance of starting material. The sole cleavage product was identified to be thymidine by comparison to the authentic sample on TLC.
as §2, with “To” for “To a”, “5-(2-phenylbenzyloxy)methyl-2′-deoxyuridine” for “5-(2-isopropylbenzyloxy)methyl-2′-deoxyuridine”, “added” for “added of”, “1” for “one”
as §2, with “5-(2,6-dimethylbenzyloxy)methyl-2′-deoxyuridine” for “5-(2-isopropylbenzyloxy)methyl-2′-deoxyuridine”, “added” for “added of”, “1” for “one”
To a solution of 5-benzyloxy-2′-deoxyuridine (10 mg) in ethanol (1 mL) was added Pd/C (10%, 10 mg), and the mixture was stirred for five minutes. Hydrogen was introduced to the system via a balloon and the reaction mixture was stirred at room temperature. Aliquots (5 μL) were taken out from the reaction mixture at various time point intervals and were analyzed by thin layer chromatography and HPLC. Complete cleavage to thymidine was observed after ten minutes at room temperature (Scheme 42 and FIG. 4). The intermediate of the cleavage was identified to be 5-hydroxymethyl-dU generated from initial removal of benzyl group, and HOMedU was further reduced to thymidine. […]

The results in this text go back to patent US9200319B2, “Nucleotides and nucleosides and methods for their use in DNA sequencing” (Lasergen, Inc., priority 2008, dated 2015).

Where “and” joins values, the source holds several entries; their conditions need not be identical. Equal entries are not always repeated.

T1 sequence (Q56366 whole entry D141A/E143A/A485L): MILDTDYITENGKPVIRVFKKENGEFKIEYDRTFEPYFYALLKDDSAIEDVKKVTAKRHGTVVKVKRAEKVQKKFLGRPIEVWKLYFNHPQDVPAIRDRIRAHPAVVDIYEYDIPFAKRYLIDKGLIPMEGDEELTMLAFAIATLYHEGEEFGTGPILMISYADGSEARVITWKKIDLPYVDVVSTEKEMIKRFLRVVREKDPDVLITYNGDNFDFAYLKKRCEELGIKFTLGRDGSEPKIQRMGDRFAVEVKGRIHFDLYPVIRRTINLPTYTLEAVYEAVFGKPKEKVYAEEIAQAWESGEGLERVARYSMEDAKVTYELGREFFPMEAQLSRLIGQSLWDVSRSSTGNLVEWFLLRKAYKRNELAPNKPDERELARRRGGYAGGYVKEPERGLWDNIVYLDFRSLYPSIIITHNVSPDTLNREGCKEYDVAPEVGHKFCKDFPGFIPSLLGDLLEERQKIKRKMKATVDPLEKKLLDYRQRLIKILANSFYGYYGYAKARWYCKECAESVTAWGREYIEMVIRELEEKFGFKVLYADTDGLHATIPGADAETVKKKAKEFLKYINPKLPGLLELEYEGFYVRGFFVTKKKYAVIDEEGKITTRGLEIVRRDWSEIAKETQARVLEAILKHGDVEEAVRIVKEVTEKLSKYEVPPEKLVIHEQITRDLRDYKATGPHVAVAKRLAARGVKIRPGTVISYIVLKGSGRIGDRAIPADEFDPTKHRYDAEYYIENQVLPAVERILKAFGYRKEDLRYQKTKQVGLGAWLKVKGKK

For orientation: IC50 means the point on the concentration scale where inhibition reaches its midpoint. Read a low IC50 as greater potency. On to `COc1ccc(C(OCc2cn([C@H]3C[C@H](O)[C@@H](COP(=O)(O)OP(=O)(O)OP(=O)(O)O)O3)c3ncnc(N)c23)C(C)C)c([N+](=O)[O-])c1` (single isomer, unassigned) [6p087-ds2, 7-[1-(4-methoxy-2-nitrophenyl)-2-methyl-propyloxy]methyl-7-deaza-2′-deoxyadenosine-5′-triphosphate], for which, in assay [1], the IC50 came out at 18 ± 3 nM. In assay [2], the “DT50” value is 1.9 s and 1.9 ± 0.1 s.
Consider `CC(C)C(OCc1cn([C@H]2C[C@H](O)[C@@H](CO)O2)c(=O)[nH]c1=O)c1ccccc1` (some centres unmarked) [5-(1-phenyl-2-methyl-propyloxy)methyl-2′-deoxyuridine], for which the “time to complete cleavage to thymidine” value in assay [3] is 240 min.
Take `Cc1cccc(C)c1COCc1cn([C@H]2C[C@H](O)[C@@H](CO)O2)c(=O)[nH]c1=O` [5-(2,6-dimethylbenzyloxy)methyl-2′-deoxyuridine]: the “time to complete cleavage to thymidine” value in assay [3] is reported as “five”.
Turning to `CC(C)c1ccccc1COCc1cn([C@H]2C[C@H](O)[C@@H](CO)O2)c(=O)[nH]c1=O` [5-(2-isopropylbenzyloxy)methyl-2′-deoxyuridine], the “time to complete cleavage to thymidine” value in assay [3] is recorded as “five”.
As to `O=c1[nH]c(=O)n([C@H]2C[C@H](O)[C@@H](CO)O2)cc1COCc1ccccc1-c1ccccc1` [5-(2-phenylbenzyloxy)methyl-2′-deoxyuridine], in assay [3], the “time to complete cleavage to thymidine” value is given as “five”.
As for `O=c1[nH]c(=O)n([C@H]2C[C@H](O)[C@@H](CO)O2)cc1COCc1ccccc1` [5-(benzyloxy)methyl-2′-deoxyuridine], in assay [3], the “time to complete cleavage to thymidine” value was “ten”. For the same compound, in assay [3] (homogenous catalyst, sodium tetrachloropalladate (II), TLC), the “time to complete disappearance of starting material (cleavage to thymidine)” value is 20 min.
